Calls of active or inactive are those of the source. No cut-off for these calls is given here.

Consider one compound from ChEMBL document CHEMBL5370549, “Optimization and evaluation of pyridinyl vinyl sulfones as Nrf2 activator for the antioxidant and anti-inflammatory effects” (Eur J Med Chem, 2023).

The target of data set [1] is T1, Nuclear factor erythroid 2-related factor 2 (Mus musculus) (UniProt Q60795).
T1 sequence (whole entry): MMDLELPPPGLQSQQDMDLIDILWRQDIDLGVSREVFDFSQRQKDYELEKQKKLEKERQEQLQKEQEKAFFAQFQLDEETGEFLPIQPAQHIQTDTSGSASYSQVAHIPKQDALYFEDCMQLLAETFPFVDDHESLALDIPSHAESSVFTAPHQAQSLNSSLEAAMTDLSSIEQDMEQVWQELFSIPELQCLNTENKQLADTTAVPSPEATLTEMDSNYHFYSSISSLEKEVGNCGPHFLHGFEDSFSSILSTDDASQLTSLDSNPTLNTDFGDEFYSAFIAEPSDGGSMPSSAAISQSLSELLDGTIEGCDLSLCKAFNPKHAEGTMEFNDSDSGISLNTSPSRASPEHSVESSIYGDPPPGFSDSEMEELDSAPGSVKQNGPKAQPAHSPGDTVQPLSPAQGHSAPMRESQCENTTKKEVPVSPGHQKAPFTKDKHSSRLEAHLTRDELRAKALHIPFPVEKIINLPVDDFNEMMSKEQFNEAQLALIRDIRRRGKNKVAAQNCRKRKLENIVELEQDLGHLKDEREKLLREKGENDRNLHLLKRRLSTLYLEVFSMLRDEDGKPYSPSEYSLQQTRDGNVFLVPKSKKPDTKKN
The data set is described as follows: Activation of Nrf2 in mouse BV-2 cells assessed as increase in Nrf2 level in whole cell lysates at 3 uM measured after 48 hrs by immunoblot analysis. In kind it is subcellular.

Data set [2] is described as follows: Metabolic stability of the compound in human plasma assessed as parent compound remaining measured after 30 mins. In kind it is ADME, cell-free. The conditions noted are these: read-out: Stability.
Data set [3] relates to BV-2. Briefly: Antiinflammatory activity against LPS-induced mouse BV-2 cells assessed as inhibition of TNF-alpha production at 0.1 to 3 uM pretreated for 6 hrs followed by LPS stimulation for 24 hrs by ELISA. The conditions noted are these: dose 0.1-3 µM, time 30.0 hrs. In kind it is functional, cell-based. Background: An ELISA detects its analyte on a solid surface through an enzyme-linked reagent.

Data set [4] addresses T1, Nuclear factor erythroid 2-related factor 2 (Mus musculus). The data set is described as follows: Activation of Nrf2 in mouse BV-2 cells assessed as increase in HO-1 protein expression measured after 9 hrs by immunoblot analysis. In kind it is cell-based. The conditions noted are these: filed as activator, dose 0.01-3 µM. For orientation: A western blot detects proteins with antibodies after separation by electrophoresis.

Data set [5] has the same target. Briefly: Activation of Nrf2 in mouse BV-2 cells assessed as increase in GCLM protein expression at 3 uM measured after 12 hrs by immunoblot analysis. Type of data set: cell-based. The conditions noted are these: filed as activator.
Another data set addresses CYP2C19 (Homo sapiens, UniProt P33261). Briefly: Inhibition of CYP2C19 (unknown origin) assessed as enzyme activity at 10 uM relative to control. In kind it is ADME. The arrangement: scale not given: the % may be the effect or the level left. The conditions noted are these: read-out: Activity.
Data set [6] deals with T1, Nuclear factor erythroid 2-related factor 2 (Mus musculus). Briefly: Activation of Nrf2 in mouse BV-2 cells assessed as increase in Gclm mRNA expression incubated for 3 hrs by qRT-PCR analysis. Type of data set: cell-based. The conditions noted are these: filed as activator, dose 0.01-3 µM. In general terms: Quantitative PCR measures a nucleic acid by following its amplification.

The target is the same in data set [7]. Briefly: Activation of Nrf2 in mouse BV-2 cells assessed as increase in Nrf2 level in whole cell lysates measured after 3 hrs by immunoblot analysis. The conditions noted are these: filed as activator, dose 0.01-3 µM. Type of data set: subcellular.
The target of another data set is CYP3A4 (Homo sapiens, UniProt P08684). The data set is described as follows: Inhibition of CYP3A4 (unknown origin) assessed as enzyme activity at 10 uM relative to control. In kind it is ADME. The arrangement: scale not given: the % may be the effect or the level left. The conditions noted are these: read-out: Activity.
Chain of CYP3A4 (P08684 whole entry): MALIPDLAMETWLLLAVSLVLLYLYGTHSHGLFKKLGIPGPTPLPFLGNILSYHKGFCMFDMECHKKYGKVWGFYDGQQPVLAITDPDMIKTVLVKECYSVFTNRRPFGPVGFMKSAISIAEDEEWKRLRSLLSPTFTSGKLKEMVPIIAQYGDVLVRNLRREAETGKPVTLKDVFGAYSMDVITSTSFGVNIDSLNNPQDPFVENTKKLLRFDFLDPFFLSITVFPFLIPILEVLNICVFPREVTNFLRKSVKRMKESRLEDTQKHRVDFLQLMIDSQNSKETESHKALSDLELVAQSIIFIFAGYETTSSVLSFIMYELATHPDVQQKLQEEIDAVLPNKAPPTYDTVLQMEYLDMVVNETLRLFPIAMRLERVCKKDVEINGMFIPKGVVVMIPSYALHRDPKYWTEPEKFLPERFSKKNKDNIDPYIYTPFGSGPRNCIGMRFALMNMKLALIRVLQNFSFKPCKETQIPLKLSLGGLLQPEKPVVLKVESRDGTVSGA
Data set [8] concerns Mus musculus. The data set is described as follows: Cognitive enhancing activity against LPS-induced neuroinflammation C57BL/6N mouse model assessed as […] memory improvement by measuring delayed step-through latency at 20 mg/kg/day, po administered for 3 days followed by LPS administration for 7 days by passive avoidance test. In kind it is functional, organism-based. The conditions noted are these: time 10.0 day.

Data set [9] addresses T1, Nuclear factor erythroid 2-related factor 2 (Mus musculus). The data set is described as follows: Activation of Nrf2 in mouse BV-2 cells assessed as increase in Nrf2 nuclear translocation measured after 3 hrs by immunoblot analysis. Type of data set: subcellular. The conditions noted are these: Nucleus, filed as activator, dose 0.01-3 µM.
Data set [10] has the same target. The data set is described as follows: Activation of Nrf2 in mouse BV-2 cells assessed as increase in GCLM protein expression at 3 uM measured after 48 hrs by immunoblot analysis. The conditions noted are these: filed as activator. In kind it is cell-based.
The subject of data set [11] is BV-2. The data set is described as follows: Antiinflammatory activity against LPS-induced mouse BV-2 cells assessed as inhibition of IL-6 production at 0.1 to 3 uM pretreated for 6 hrs followed by LPS stimulation for 24 hrs by ELISA. In kind it is functional, cell-based. The conditions noted are these: dose 0.1-3 µM, time 30.0 hrs.
Another data set concerns the target CYP2D6 (Homo sapiens, UniProt P10635). Briefly: Inhibition of CYP2D6 (unknown origin) assessed as enzyme activity at 10 uM relative to control. Type of data set: ADME. The arrangement: scale not given: the % may be the effect or the level left. The conditions noted are these: read-out: Activity.
The subject of data set [12] is BV-2. The data set is described as follows: Antiinflammatory activity against LPS-induced mouse BV-2 cells assessed as inhibition of IL-1 beta protein expression at 0.001 to 1 uM pretreated for 6 hrs followed by LPS stimulation for 24 hrs by immunoblot analysis. In kind it is functional, cell-based. The conditions noted are these: dose 0.001-1 µM, time 30.0 hrs.
A further data set has as its target CYP2C9 (Homo sapiens, UniProt P11712). Briefly: Inhibition of CYP2C9 (unknown origin) assessed as enzyme activity at 10 uM relative to control. In kind it is ADME. Also on record: scale not given: the % may be the effect or the level left. The conditions noted are these: read-out: Activity.
The test system of data set [13] is BV-2. Briefly: Antiinflammatory activity against LPS-induced mouse BV-2 cells assessed as inhibition of IL-6 mRNA expression at 0.03 to 3 uM pretreated for 6 hrs followed by LPS stimulation for 6 hrs by qRT-PCR analysis. The conditions noted are these: dose 0.03-3 µM, time 12.0 hrs. In kind it is functional, cell-based.
The target of data set [14] is T1, Nuclear factor erythroid 2-related factor 2 (Mus musculus). Briefly: Activation of Nrf2 in mouse BV-2 cells assessed as increase in GCLM protein expression measured after 12 hrs by immunoblot analysis. In kind it is cell-based. The conditions noted are these: filed as activator, dose 0.01-3 µM.
The target of the next data set is T2, CYP1A2 (Homo sapiens, UniProt P05177).
T2 sequence (P05177 whole entry): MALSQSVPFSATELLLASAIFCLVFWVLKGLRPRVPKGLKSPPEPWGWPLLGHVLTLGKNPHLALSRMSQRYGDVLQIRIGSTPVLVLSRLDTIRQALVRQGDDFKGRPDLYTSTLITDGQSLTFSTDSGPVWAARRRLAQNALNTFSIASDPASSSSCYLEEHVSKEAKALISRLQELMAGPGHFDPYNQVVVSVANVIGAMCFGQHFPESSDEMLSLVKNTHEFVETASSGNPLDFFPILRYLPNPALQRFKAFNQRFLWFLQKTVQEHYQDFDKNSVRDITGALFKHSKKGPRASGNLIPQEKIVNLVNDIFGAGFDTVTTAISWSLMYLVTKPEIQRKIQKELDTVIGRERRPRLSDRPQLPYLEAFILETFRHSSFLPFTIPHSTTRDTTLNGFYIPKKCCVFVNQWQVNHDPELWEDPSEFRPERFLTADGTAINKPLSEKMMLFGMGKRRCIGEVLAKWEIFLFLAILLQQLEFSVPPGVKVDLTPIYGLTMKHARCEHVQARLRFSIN
Briefly: Inhibition of CYP1A2 (unknown origin) assessed as enzyme activity at 10 uM relative to control. The conditions noted are these: read-out: Activity. In kind it is ADME. The arrangement: scale not given: the % may be the effect or the level left.

Data set [15] deals with Mus musculus. The data set is described as follows: Antiinflammatory activity against LPS-induced neuroinflammation C57BL/6N mouse model assessed as reduction of glial cell reactivity by measuring reduction in GFAP expression in hippocampus CA3 region at 20 mg/kg/day, po administered for 3 days followed by LPS administration for 7 days by immunofluorescence staining based analysis. Type of data set: functional, organism-based. The conditions noted are these: time 10.0 day.

Data set [16] addresses T1, Nuclear factor erythroid 2-related factor 2 (Mus musculus). The data set is described as follows: Activation of Nrf2 in mouse BV-2 cells assessed as increase in HO-1 protein expression at 3 uM measured after 24 hrs by immunoblot analysis. Type of data set: cell-based. The conditions noted are these: filed as activator.
Data set [17] deals with BV-2. Briefly: Antiinflammatory activity against LPS-induced mouse BV-2 cells assessed as inhibition of iNOS protein expression pretreated for 6 hrs followed by LPS stimulation for 24 hrs by immunoblot analysis. The conditions noted are these: dose 0.001-1 µM, time 30.0 hrs. In kind it is functional, cell-based.

Chain of CYP2D6 (P10635 whole entry): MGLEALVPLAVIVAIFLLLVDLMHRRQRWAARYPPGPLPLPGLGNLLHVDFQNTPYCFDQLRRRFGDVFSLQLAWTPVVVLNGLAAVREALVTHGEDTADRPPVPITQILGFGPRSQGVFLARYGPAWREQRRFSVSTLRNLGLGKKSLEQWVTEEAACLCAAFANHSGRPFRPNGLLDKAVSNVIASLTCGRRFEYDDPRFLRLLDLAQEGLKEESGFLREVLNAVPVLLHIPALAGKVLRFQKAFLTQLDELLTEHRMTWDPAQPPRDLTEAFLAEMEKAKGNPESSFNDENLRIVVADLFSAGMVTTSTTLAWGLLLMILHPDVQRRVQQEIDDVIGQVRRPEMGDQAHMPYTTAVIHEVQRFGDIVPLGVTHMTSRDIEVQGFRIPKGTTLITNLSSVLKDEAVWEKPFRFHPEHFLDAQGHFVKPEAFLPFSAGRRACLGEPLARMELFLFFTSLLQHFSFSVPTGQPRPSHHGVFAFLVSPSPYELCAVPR
Chain of CYP2C9 (P11712 whole entry): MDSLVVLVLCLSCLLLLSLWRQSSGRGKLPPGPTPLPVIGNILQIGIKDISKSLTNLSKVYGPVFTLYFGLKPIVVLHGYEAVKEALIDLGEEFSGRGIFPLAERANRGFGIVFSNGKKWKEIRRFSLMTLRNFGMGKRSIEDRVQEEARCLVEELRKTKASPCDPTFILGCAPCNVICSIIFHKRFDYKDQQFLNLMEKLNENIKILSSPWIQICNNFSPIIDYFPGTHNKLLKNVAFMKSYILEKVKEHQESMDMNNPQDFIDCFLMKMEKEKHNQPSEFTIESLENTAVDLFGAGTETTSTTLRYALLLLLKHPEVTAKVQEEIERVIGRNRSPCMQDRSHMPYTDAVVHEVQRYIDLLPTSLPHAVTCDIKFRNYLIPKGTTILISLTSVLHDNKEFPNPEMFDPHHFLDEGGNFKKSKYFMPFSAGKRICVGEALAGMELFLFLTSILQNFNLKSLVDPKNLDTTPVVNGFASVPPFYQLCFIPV
Chain of CYP2C19 (P33261 whole entry): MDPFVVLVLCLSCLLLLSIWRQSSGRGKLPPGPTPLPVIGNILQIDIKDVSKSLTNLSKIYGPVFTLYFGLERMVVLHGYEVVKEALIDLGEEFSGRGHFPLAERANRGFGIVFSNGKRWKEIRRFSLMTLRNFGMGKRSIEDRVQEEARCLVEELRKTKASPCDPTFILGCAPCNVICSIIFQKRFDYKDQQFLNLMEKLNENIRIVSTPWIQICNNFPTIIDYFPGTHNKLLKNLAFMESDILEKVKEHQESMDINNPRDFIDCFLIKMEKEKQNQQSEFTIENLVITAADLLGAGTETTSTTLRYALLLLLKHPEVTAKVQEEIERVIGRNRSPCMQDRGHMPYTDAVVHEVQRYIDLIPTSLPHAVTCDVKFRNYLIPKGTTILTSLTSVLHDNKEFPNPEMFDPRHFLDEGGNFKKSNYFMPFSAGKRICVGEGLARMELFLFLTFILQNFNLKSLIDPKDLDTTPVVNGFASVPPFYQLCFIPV

For the compound `COc1cccnc1S(=O)(=O)/C=C/c1ncccc1Cl`, the Activity result in data set [1] is “inactive”. In addition, in [2], the remaining at 0.5 h was 92.8%. The Activity result (in the data set on BV-2 [3]; in [5]; in the data set with Mus musculus [8]; in [10]; in the data set with BV-2 [11]; in the data set on BV-2 [12]) was “Active” in each case. For the same compound, the Activity result (in the data set with BV-2 [13]; in the data set with Mus musculus [15]; in data set [16]) was “Active” in each case. In addition, the Activity result (in [4]; in data set [6]; in data set [7]; in data set [9]; in data set [14]; in the data set with BV-2 [17]) was “Dose-Dependent Effect” in each case. Besides, the activity at 10 µM was 74.7% on CYP2C19; 77.1% on CYP3A4; more than 99% at CYP2D6; more than 99% on CYP2C9; 84.9% at CYP1A2.
